Assay results taken from the NIST ThermoML archive (doi:10.1016/j.jct.2014.01.022).
± gives the expanded uncertainty stated by the source.

Tests used:
[1] = 298.15 K; 101.33 kPa; Liquid; Vibrating tube method
[2] = refractive index (Na D-line) (dimensionless); conditions: 298.15 K; 101.33 kPa; Liquid; Standard Abbe refractometry

| SMILES | mass density [1] [kg/m3] | refractive index [2] |
| --- | --- | --- |
| CCCn1cc[n+](C)c1.O=S(=O)([N-]S(=O)(=O)C(F)(F)F)C(F)(F)F | 1474.44 ± 0.33 | 1.42526 ± 0.00033 |
| Cc1ccccc1 [toluene] | 862.17 ± 0.13 | 1.49399 ± 0.00031 |
| CCCC[n+]1ccn(C)c1.O=S(=O)([N-]S(=O)(=O)C(F)(F)F)C(F)(F)F | 1436.35 ± 0.22 | 1.42706 ± 0.00031 |

Results, then the compound that gave them:

| mass density [1] [kg/m3] | refractive index [2] | SMILES |
| --- | --- | --- |
| 873.57 ± 0.24 | 1.49774 ± 0.00037 | c1ccccc1 [benzene] |
| 862.51 ± 0.24 | 1.49304 ± 0.00037 | CCc1ccccc1 [ethylbenzene] |
| 713.9 ± 0.17 | 1.40326 ± 0.00031 | CCCCCCCCC [nonane] |
| 698.6 ± 0.25 | 1.39519 ± 0.00037 | CCCCCCCC [octane] |
